ChEMBL document CHEMBL3102762, “A "natural" approach: synthesis and cytoxicity of monodesmosidic glycyrrhetinic acid glycosides” (Eur J Med Chem, 2014)
The source made the active and inactive calls. The rule behind the calls is not given here.

Legend:
[1] = Cytotoxicity against human A253 cells by SRB assay; type: functional, cell-based
8505C = test: Cytotoxicity against human 8505C cells by SRB assay; type: functional, cell-based
[2] = Cytotoxicity against human SW1736 cells by SRB assay; type: functional, cell-based; conditions: SW-1736
[3] = Cytotoxicity against human Lipo cells by SRB assay; type: functional, cell-based
[4] = Cytotoxicity against human 518A2 cells by SRB assay; type: functional, cell-based
MCF7 [5] = test: Cytotoxicity against human MCF7 cells by SRB assay; type: functional, cell-based
A549 = test: Induction of apoptosis in human A549 cells by acridine orange/ethidium bromide staining; type: functional, cell-based
MCF7 [6] = test: Induction of apoptosis in human MCF7 cells at 40 uM by acridine orange/ethidium bromide staining; type: functional, cell-based
[7] = Cytotoxicity against human DLD1 cells by SRB assay; type: functional, cell-based; conditions: DLD-1
NIH3T3 = test: Cytotoxicity against mouse NIH/3T3 cells by SRB assay; type: cell-based
MCF7 [8] = test: Induction of apoptosis in human MCF7 cells at 20 uM by acridine orange/ethidium bromide staining; type: functional, cell-based
MCF7 [9] = test: Induction of apoptosis in human MCF7 cells at 12 uM by acridine orange/ethidium bromide staining; type: functional, cell-based
MCF7 [10] = test: Induction of apoptosis in human MCF7 cells at 30 uM by acridine orange/ethidium bromide staining; type: functional, cell-based

SMILES	IC50 [1] [µM]	IC50 (8505C) [µM]	IC50 [2] [µM]	IC50 [3] [µM]	IC50 [4] [µM]	IC50 (MCF7 [5]) [µM]	Activity (A549)	Activity (MCF7 [6])	IC50 [7] [µM]	IC50 (NIH3T3) [µM]	Activity (MCF7 [8])	Activity (MCF7 [9])	Activity (MCF7 [10])
COC(=O)[C@@]1(C)CC[C@]2(C)CC[C@]3(C)C(=CC(=O)[C@@H]4[C@@]5(C)CC[C@H](O[C@@H]6OC[C@@H](O)[C@H](O)[C@H]6O)C(C)(C)[C@@H]5CC[C@]43C)[C@@H]2C1	> 30	> 30	> 30	> 30	> 30	> 30	Active	Active	> 30	> 30			
COC(=O)[C@@]1(C)CC[C@]2(C)CC[C@]3(C)C(=CC(=O)[C@@H]4[C@@]5(C)CC[C@H](O[C@H]6OC[C@@H](O)[C@@H](O)[C@@H]6O)C(C)(C)[C@@H]5CC[C@]43C)[C@@H]2C1	> 30	> 30	> 30	> 30	> 30	> 30	Active	Active	> 30	> 30			
COC(=O)[C@@]1(C)CC[C@]2(C)CC[C@]3(C)C(=CC(=O)[C@@H]4[C@@]5(C)CC[C@H](O[C@@H]6OC[C@H](O)[C@H](O)[C@H]6O)C(C)(C)[C@@H]5CC[C@]43C)[C@@H]2C1	> 30	> 30	> 30	> 30	> 30	16.7	Active		> 30	> 30	Active		
COC(=O)[C@@]1(C)CC[C@]2(C)CC[C@]3(C)C(=CC(=O)[C@@H]4[C@@]5(C)CC[C@H](O[C@H]6O[C@H](CO)[C@@H](O)[C@H](O)[C@@H]6O)C(C)(C)[C@@H]5CC[C@]43C)[C@@H]2C1	13.2	22	11.2	> 30	25.9	9.48	Active		> 30	> 30		Active	
COC(=O)[C@@]1(C)CC[C@]2(C)CC[C@]3(C)C(=CC(=O)[C@@H]4[C@@]5(C)CC[C@H](O[C@@H]6O[C@@H](C)[C@H](O)[C@@H](O)[C@H]6O)C(C)(C)[C@@H]5CC[C@]43C)[C@@H]2C1	> 30	> 30	> 30	> 30	> 30	19.6	Active		> 30	> 30			Active
COC(=O)[C@@]1(C)CC[C@]2(C)CC[C@]3(C)C(=CC(=O)[C@@H]4[C@@]5(C)CC[C@H](O[C@@H]6O[C@H](CO)[C@H](O)[C@H](O)[C@H]6O)C(C)(C)[C@@H]5CC[C@]43C)[C@@H]2C1	19.7	22.8	21.4	23.2	23.3	20.1	Active		23.2	23.4			Active
COC(=O)[C@@]1(C)CC[C@]2(C)CC[C@]3(C)C(=CC(=O)[C@@H]4[C@@]5(C)CC[C@H](O)C(C)(C)[C@@H]5CC[C@]43C)[C@@H]2C1							Active						Active
COC(=O)[C@@]1(C)CC[C@]2(C)CC[C@]3(C)C(=CC(=O)[C@@H]4[C@@]5(C)CC[C@H](O[C@H]6O[C@@H](C)[C@H](O)[C@@H](O)[C@H]6O)C(C)(C)[C@@H]5CC[C@]43C)[C@@H]2C1	27.2	> 30	23.9	28.4	28.9	> 30	Active	Active	> 30	> 30			
